Where a name gives a salt, the structure may show the parent alone.
What follows are compounds tested against T1, Proton Pump (H^+,K^+-ATPase) (Sus scrofa, UniProt P19156) (assay: Inhibitory activity on proton pump (H+,K+-ATPase) activity, porcine gastric vesicles, malachite green readout). Conditions: porcine gastric vesicles, pH 6.5, 8 mM KCl, 0.2 mM ATP.
T1 construct: gastric vesicles were isolated from porcine stomachs; from tissue; host or cells: porcine stomach (gastric vesicles)
Assay type: biochemical
Method: Specifically, gastric vesicles were isolated from porcine stomachs, and the protein content of the vesicles was quantified using a BSA kit (Bio-Rad, 5000205). All reactions were performed in 96-well plates with a reaction volume of […] containing 100 ng of vesicles. 10 mM valinomycin and the test compound were added to reaction buffer (50 mM Tris-HEPES, 5 mM MgCl2, 8 mM KCl, pH 6.5) containing porcine gastric vesicles at various concentrations, and the mixture was incubated at 37°C for 30 minutes. DMSO or test compounds at different concentrations were added after diluting them to a final DMSO concentration of 0.1%. 0.2 mM adenosine triphosphate (ATP) was then added to the reaction buffer and incubated at 37°C for 20 minutes. The reaction was stopped with 0.2% Tween 20, followed by the addition of malachite green (Sigma Aldrich, MAK307) and incubation at room temperature for 30 minutes. The optical density (OD) value was measured at 620 nm using a microplate reader (Spectramax M5e, Molecular devices). The percent (%) inhibition was derived from the OD values of the control group and various concentrations of the test compounds. The IC50 of the test compounds was analyzed using nonlinear regression using the GraphPad Prism8 program using the % inhibition value at each concentration.

T1 sequence (P19156 2-1034 limits assumed): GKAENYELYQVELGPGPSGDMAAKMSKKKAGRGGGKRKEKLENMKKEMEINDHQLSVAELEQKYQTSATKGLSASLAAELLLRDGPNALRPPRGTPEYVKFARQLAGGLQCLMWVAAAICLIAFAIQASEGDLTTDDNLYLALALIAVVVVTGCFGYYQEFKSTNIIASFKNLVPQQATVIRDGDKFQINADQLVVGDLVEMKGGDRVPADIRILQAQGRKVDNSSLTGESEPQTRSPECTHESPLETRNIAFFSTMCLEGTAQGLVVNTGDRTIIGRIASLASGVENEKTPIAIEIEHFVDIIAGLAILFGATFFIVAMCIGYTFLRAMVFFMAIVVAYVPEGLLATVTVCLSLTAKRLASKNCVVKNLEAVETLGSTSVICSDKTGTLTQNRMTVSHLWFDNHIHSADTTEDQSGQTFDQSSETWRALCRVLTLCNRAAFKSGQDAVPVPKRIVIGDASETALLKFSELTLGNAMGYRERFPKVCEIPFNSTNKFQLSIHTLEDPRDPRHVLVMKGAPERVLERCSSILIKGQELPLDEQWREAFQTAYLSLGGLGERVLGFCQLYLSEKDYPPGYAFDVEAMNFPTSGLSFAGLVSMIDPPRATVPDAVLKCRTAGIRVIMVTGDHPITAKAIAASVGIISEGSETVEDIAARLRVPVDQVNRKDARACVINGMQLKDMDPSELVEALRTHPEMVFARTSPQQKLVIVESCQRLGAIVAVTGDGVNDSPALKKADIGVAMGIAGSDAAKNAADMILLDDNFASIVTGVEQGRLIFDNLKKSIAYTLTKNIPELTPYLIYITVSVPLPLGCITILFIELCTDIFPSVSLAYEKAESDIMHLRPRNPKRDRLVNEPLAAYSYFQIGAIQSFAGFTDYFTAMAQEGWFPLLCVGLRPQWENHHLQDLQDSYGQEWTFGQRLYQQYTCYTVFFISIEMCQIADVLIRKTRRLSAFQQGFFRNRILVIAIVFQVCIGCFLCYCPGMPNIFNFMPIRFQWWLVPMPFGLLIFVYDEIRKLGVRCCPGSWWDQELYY
T1 sequence (P18434 whole entry partner): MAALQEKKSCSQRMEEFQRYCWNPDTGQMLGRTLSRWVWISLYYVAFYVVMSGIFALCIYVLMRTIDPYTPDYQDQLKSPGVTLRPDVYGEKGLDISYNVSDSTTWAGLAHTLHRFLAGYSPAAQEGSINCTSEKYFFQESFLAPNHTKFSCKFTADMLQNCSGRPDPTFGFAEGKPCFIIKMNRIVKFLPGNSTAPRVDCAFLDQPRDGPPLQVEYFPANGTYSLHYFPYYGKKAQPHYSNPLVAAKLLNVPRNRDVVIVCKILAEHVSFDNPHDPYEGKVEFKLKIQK

IC50 [nM]	Structure (SMILES)
> 500	Cc1cccc(C)c1CNc1cc(NC(=O)CNC(=O)C(F)F)cn2c(C)c(C)nc12 [Example 56, N-(2-((8-((2,6-dimethylbenzyl)amino)-2,3-dimethylimidazo[1,2-a]pyridin-6-yl)amino)-2-oxoethyl)-2,2-difluoroacetamide]
100 to 500	Cc1cccc(C)c1CNc1cc(NC(=O)CNC(=O)C(C)(F)F)cn2c(C)c(C)nc12 [Example 57, N-(2-((8-((2,6-dimethylbenzyl)amino)-2,3-dimethylimidazo[1,2-a]pyridin-6-yl)amino)-2-oxoethyl)-2,2-difluoropropanamide]
100 to 500	Cc1cccc(C)c1CNc1cc(NC(=O)CNC(=O)C2CC(O)C2)cn2c(C)c(C)nc12 (centres unmarked) [Example 58, N-(2-((8-((2,6-dimethylbenzyl)amino)-2,3-dimethylimidazo[1,2-a]pyridin-6-yl)amino)-2-oxoethyl)-3-hydroxycyclobutane-1-carboxamide]
100 to 500	Cc1cccc(C)c1CNc1cc(NC(=O)CNC(=O)C2CC(F)C2)cn2c(C)c(C)nc12 (centres unmarked) [Example 59, N-(2-((8-((2,6-dimethylbenzyl)amino)-2,3-dimethylimidazo[1,2-a]pyridin-6-yl)amino)-2-oxoethyl)-3-fluorocyclobutane-1-carboxamide]
50 to 100	Cc1cccc(C)c1CNc1cc(NC(=O)N2CCOCC2)cn2c(C)c(C)nc12 [Example 61, N-(8-((2,6-dimethylbenzyl)amino)-2,3-dimethylimidazo[1,2-a]pyridin-6-yl)morpholine-4-carboxamide citrate]
100 to 500	CC(=O)OCCNC(=O)Nc1cc(NCc2c(C)cccc2C)c2nc(C)c(C)n2c1 [Example 62, 2-(3-(8-((2,6-dimethylbenzyl)amino)-2,3-dimethylimidazo[1,2-a]pyridin-6-yl)ureido)ethyl acetate hydrochloride]
50 to 100	Cc1cc(F)cc(C)c1CNc1cc(NC(=O)[C@H](C)N)cn2c(C)c(C)nc12 [Example 63, (S)-2-amino-N-(8-((4-fluoro-2,6-dimethylbenzyl)amino)-2,3-dimethylimidazo[1,2-a]pyridin-6-yl)propanamide hydrochloride]
< 50	Cc1cc(F)cc(C)c1CNc1cc(NC(=O)CN)cn2c(C)c(C)nc12.Cl [Example 64, 2-amino-N-(8-((4-fluoro-2,6-dimethylbenzyl)amino)-2,3-dimethylimidazo[1,2-a]pyridin-6-yl)acetamide hydrochloride]
50 to 100	Cc1cc(F)cc(C)c1CNc1cc(NC(=O)[C@@H]2CCN2)cn2c(C)c(C)nc12 [Example 65, (S)-N-(8-((4-fluoro-2,6-dimethylbenzyl)amino)-2,3-dimethylimidazo[1,2-a]pyridin-6-yl)azetidine-2-carboxamide hydrochloride]
100 to 500	Cc1cccc(C)c1CNc1cc(NC(=O)N2CC3(CCC3)C2)cn2c(C)c(C)nc12 [Example 66, N-(8-((2,6-dimethylbenzyl)amino)-2,3-dimethylimidazo[1,2-a]pyridin-6-yl)-2-azaspiro[3.3]heptane-2-carboxamide citrate]
50 to 100	Cc1cccc(C)c1CNc1cc(NC(=O)N2Cc3ccccc3C2)cn2c(C)c(C)nc12 [Example 67, N-(8-((2,6-dimethylbenzyl)amino)-2,3-dimethylimidazo[1,2-a]pyridin-6-yl)isoindoline-2-carboxamide]
50 to 100	Cc1cccc(C)c1CNc1cc(NC(=O)N2Cc3ccncc3C2)cn2c(C)c(C)nc12 [Example 68, N-(8-((2,6-dimethylbenzyl)amino)-2,3-dimethylimidazo[1,2-a]pyridin-6-yl)-1,3-dihydro-2H-pyrrolo[3,4-c]pyridine-2-carboxamide]
< 50	Cc1cccc(C)c1CNc1cc(NC(=O)N2CC(=O)C2)cn2c(C)c(C)nc12 [Example 69, N-(8-((2,6-dimethylbenzyl)amino)-2,3-dimethylimidazo[1,2-a]pyridin-6-yl)-3-oxoazetidine-1-carboxamide citrate]
100 to 500	Cc1cccc(C)c1CNc1cc(NC(=O)NCC(=O)O)cn2c(C)c(C)nc12 [Example 70, ((8-((2,6-dimethylbenzyl)amino)-2,3-dimethylimidazo[1,2-a]pyridin-6-yl)carbamoyl)glycine hydrochloride]
100 to 500	Cc1cccc(C)c1CNc1cc(NC(=O)NCCC(=O)O)cn2c(C)c(C)nc12 [Example 71, 3-(3-(8-((2,6-dimethylbenzyl)amino)-2,3-dimethylimidazo[1,2-a]pyridin-6-yl)ureido)propionic acid citrate]
100 to 500	Cc1cccc(C)c1CNc1cc(N2C(=O)NCCNC2=O)cn2c(C)c(C)nc12 [Example 72, 3-(8-((2,6-dimethylbenzyl)amino)-2,3-dimethylimidazo[1,2-a]pyridin-6-yl)-1,3,5-triazepane-2,4-dione]
100 to 500	CC(=O)NCCNC(=O)Nc1cc(NCc2c(C)cccc2C)c2nc(C)c(C)n2c1 [Example 73, N-(2-(3-(8-((2,6-dimethylbenzyl)amino)-2,3-dimethylimidazo[1,2-a]pyridin-6-yl)ureido)ethyl)acetamide]
50 to 100	Cc1cccc(C)c1CNc1cc(NC(=O)NCC2CCOC2)cn2c(C)c(C)nc12 (centres unmarked) [Example 74, 1-(8-((2,6-dimethylbenzyl)amino)-2,3-dimethylimidazo[1,2-a]pyridin-6-yl)-3-((tetrohydrofuran-3-yl)methyl)urea hydrochloride]
100 to 500	Cc1cccc(C)c1CNc1cc(NC(=O)[C@@]2(C)CCN2)cn2c(C)c(C)nc12 [Example 75, (R)-N-(8-((2,6-dimethylbenzyl)amino)-2,3-dimethylimidazo[1,2-a]pyridin-6-yl)-2-methylazetidine-2-carboxamide hydrochloride]
50 to 100	Cc1cccc(C)c1CNc1cc(NC(=O)C[C@H]2CCN2)cn2c(C)c(C)nc12 [Example 76, (R)-2-(azetidin-2-yl)-N-(8-((2,6-dimethylbenzyl)amino)-2,3-dimethylimidazo[1,2-a]pyridin-6-yl)acetamide hydrochloride]
< 50	Cc1cccc(C)c1CNc1cc(NC(=O)N2CC(c3ccccc3)C2)cn2c(C)c(C)nc12.O=C(O)CC(O)(CC(=O)O)C(=O)O [Example 77, N-(8-((2,6-dimethylbenzyl)amino)-2,3-dimethylimidazo[1,2-a]pyridin-6-yl)-3-phenylazetidine-1-carboxamide citrate]
100 to 500	Cc1cccc(C)c1CNc1cc(NC(=O)N[C@H]2CCc3ccccc32)cn2c(C)c(C)nc12 [Example 78, (S)-1-(2,3-dihydro-1H-inden-1-yl)-3-(8-((2,6-dimethylbenzyl)amino)-2,3-dimethylimidazo[1,2-a]pyridin-6-yl)urea hydrochloride]
100 to 500	CNC(=O)N1CC[C@H]1C(=O)Nc1cc(NCc2c(C)cccc2C)c2nc(C)c(C)n2c1 [Example 79, (S)-N2-(8-((2,6-dimethylbenzyl)amino)-2,3-dimethylimidazo[1,2-a]pyridin-6-yl)-N1-methylazetidine-1,2-dicarboxamide]
> 500	Cc1cccc(C)c1CNc1cc(NC(=O)N[C@@H]2CCc3ccccc32)cn2c(C)c(C)nc12 [Example 80, (R)-1-(2,3-dihydro-1H-inden-1-yl)-3-(8-((2,6-dimethylbenzyl)amino)-2,3-dimethylimidazo[1,2-a]pyridin-6-yl)urea hydrochloride]
50 to 100	Cc1cccc(C)c1CNc1cc(NC(=O)CN2CCC2=O)cn2c(C)c(C)nc12 [Example 81, N-(8-((2,6-dimethylbenzyl)amino)-2,3-dimethylimidazo [1,2-a]pyridin-6-yl)-2-(2-oxoazetidin-1-yl)acetamide]
100 to 500	Cc1cccc(C)c1CNc1cc(NC(=O)N2CCC(c3ccccc3)CC2)cn2c(C)c(C)nc12 [Example 82, N-(8-((2,6-dimethylbenzyl)amino)-2,3-dimethylimidazo[1,2-a]pyridin-6-yl)-4-phenylpiperidine-1-carboxamide]
100 to 500	Cc1cccc(C)c1CNc1cc(NC(=O)N2CCCC(c3ccccc3)C2)cn2c(C)c(C)nc12 (centres unmarked) [Example 83, N-(8-((2,6-dimethylbenzyll)amino)-2,3-dimethylimidazo[1,2-a]pyridin-6-yl)-3-phenylpiperidine-1-carboxamide]
100 to 500	Cc1cccc(C)c1CNc1cc(NC(=O)N2CCC(c3ccccc3)C2)cn2c(C)c(C)nc12 (centres unmarked) [Example 84, N-(8-((2,6-dimethylbenzyl)amino)-2,3-dimethylimidazo[1,2-a]pyridin-6-yl)-3-phenylpyrrolidine-1-carboxamide]
100 to 500	Cc1cccc(C)c1CNc1cc(NC(=O)[C@H]2CNCCN2)cn2c(C)c(C)nc12 [Example 85, (R)-N-(8-((2,6-dimethylbenzyl)amino)-2,3-dimethylimidazo[1,2-a]pyridin-6-yl)piperazine-2-carboxamide hydrochloride]
< 50	Cc1cccc(C)c1CNc1cc(NC(=O)N(C)CCN)cn2c(C)c(C)nc12 [Example 87, 1-(2-aminoethyl)-3-(8-((2,6-dimethylbenzyl)amino)-2,3-dimethylimidazo[1,2-a]pyridin-6-yl)-1-methylurea hydrochloride]

Same assay, conditions: result in words

inhibitory activity against proton pump activity	Structure (SMILES)
excellent inhibitory properties	Cc1cc(F)cc(C)c1CNc1cc(NC(=O)CN)cn2c(C)c(C)nc12.Cl [Example 64, 2-amino-N-(8-((4-fluoro-2,6-dimethylbenzyl)amino)-2,3-dimethylimidazo[1,2-a]pyridin-6-yl)acetamide hydrochloride]
excellent inhibitory properties	Cc1cccc(C)c1CNc1cc(NC(=O)N2CC(c3ccccc3)C2)cn2c(C)c(C)nc12.O=C(O)CC(O)(CC(=O)O)C(=O)O [Example 77, N-(8-((2,6-dimethylbenzyl)amino)-2,3-dimethylimidazo[1,2-a]pyridin-6-yl)-3-phenylazetidine-1-carboxamide citrate]
